Results from patent US12422427B2, “Compounds for treatment of diseases and methods of screening therefor” (Max-Planck-Gesellschaft zur Förderung der Wissenschaften …, priority 2018, dated 2025).

Tested on: HeLa cells
Experiment: 15N lipoamide uptake by HeLa cells measured by NMR
Type: in vitro ADME
Experimental: The concentration of lipoamide relative to protein required for an effect on condensate liquidity in vitro was higher than the EC50 on cells, on the order of 100 μM lipoamide with 1 μM FUS (FIGS. 1D-1E, FIGS. 5A-5E). In cells, FUS concentrations are high for a protein (low μM)^41 and the cellular EC50 was on the order of 10 μM (FIG. 2A, FIG. 3D). We also saw inverse effects of lipoamide on FUS-containing condensates in vitro (more, larger condensates) and in cells (fewer stress granules). To reconcile this difference and to understand the relevance of the effects in vitro in cells, we wanted to know the actual concentrations of compounds in cells. In principle, isotopic labelling allows direct monitoring of isotopically-labelled compounds even in complex environment through appropriate spectroscopy. To use this approach, ^15N-labelled lipoamide (FIG. 7A) was synthesised.
Uptake of ^15N lipoamide by cells from the medium was quantified by NMR following incubation of lipoamide at 37° C. for 1 h either in the absence or presence of HeLa cells (FIG. 7B). Cellular uptake was determined by calculating the difference between medium incubated with cells or without cells for combinations of either R-(+) or (±)-lipoamide and either unstressed or stressed cells (FIG. 7C). For one sample, stressed cells with R-(+)-lipoamide, we confirmed that strong signal from the cell fraction was consistent with uptake of a large proportion of lipoamide (FIG. 7C). Both R-(+) and ±-lipoamide measurements indicated uptake of 35±11% (n=3 and 2, respectively) of the lipoamide present in the medium. No significant difference was observed either for uptake of R-(+) compared to (±)-lipoamide or stressed compared to unstressed cells (FIG. 7D).
For analysis of ^15N lipoamide uptake by cells HeLa cells expressing FUS GFP were grown in 6 well plates to 10^6 cells/well in DMEM supplemented with 10% FCS. To simultaneously stress and treat cells, the medium was replaced with 0.6 ml medium supplemented with potassium arsenate and 100 μM ^15N racemic or R-(+)-lipoamide for 1 h at 37° C. High concentrations of compound were used to maximise the signal. […] Wells were prepared for all combinations of no compound (1% DMSO control), ^15N […] or ^15N R-(+)-lipoamide, with or without potassium arsenate and with or without cells. ^1H detected ^15N edited ^1H sensitivity enhanced HSQ was used to quantify ^15N lipoamide concentration (see Supplementary Information). Solvent, pH and temperature sensitivity of the primary amide proton chemical shifts were determined using dummy samples assembled from the appropriate solvent and added compounds.
^1H detected ^15N edited ^1H sensitivity enhanced HSQC NMR (referred to here as (^15N) ^1H) spectra were acquired on a narrow bore Varian solution state spectrometer operating with a fixed field strength of 14.1 T, equipped with a room-temperature probe.
The free induction decay was recorded for an acquisition time of 0.0624 and a sweep with of 8 kHz recorded over 1000 and a recovery delays of 1 s. […] The J coupling between the amide protons and the ^15N in H2O samples was determined to be 96 Hz, and so the transfer times of 1/4 J in the INEPT portions of the pulse sequence were set to 2.6 ms. […]

NC(=O)CCCCC1CCSS1 (racemic) [lipoamide, 5-(1,2-dithiolan-3-yl)pentanamide]
uptake of the lipoamide present in the medium (100 μM, 1 h, 37° C., stressed or unstressed HeLa cells): 35%
metabolism or chemical modification in cells (NMR signal from the cell sample): no evidence for metabolism or any other chemical modification
